# According to ChEMBL document CHEMBL4400547 (J Med Chem, 2019):
# Active and inactive are the calls of the source. The rule behind the calls is not given here.
# Columns and labels:
# [1] = target: T1, Serine/threonine-protein kinase/endoribonuclease IRE1 (Homo sapiens, UniProt O75460); assay: Inhibition of dephosphorylated IRE1alpha (G547 to L977 residues) (unknown origin) autophosphorylation at S724 after 25 mins in presence of ATP by dissociation-enhanced lanthanide fluorescence immunoassay
# Target sequence in this assay (O75460 whole entry, the tested form may be a part): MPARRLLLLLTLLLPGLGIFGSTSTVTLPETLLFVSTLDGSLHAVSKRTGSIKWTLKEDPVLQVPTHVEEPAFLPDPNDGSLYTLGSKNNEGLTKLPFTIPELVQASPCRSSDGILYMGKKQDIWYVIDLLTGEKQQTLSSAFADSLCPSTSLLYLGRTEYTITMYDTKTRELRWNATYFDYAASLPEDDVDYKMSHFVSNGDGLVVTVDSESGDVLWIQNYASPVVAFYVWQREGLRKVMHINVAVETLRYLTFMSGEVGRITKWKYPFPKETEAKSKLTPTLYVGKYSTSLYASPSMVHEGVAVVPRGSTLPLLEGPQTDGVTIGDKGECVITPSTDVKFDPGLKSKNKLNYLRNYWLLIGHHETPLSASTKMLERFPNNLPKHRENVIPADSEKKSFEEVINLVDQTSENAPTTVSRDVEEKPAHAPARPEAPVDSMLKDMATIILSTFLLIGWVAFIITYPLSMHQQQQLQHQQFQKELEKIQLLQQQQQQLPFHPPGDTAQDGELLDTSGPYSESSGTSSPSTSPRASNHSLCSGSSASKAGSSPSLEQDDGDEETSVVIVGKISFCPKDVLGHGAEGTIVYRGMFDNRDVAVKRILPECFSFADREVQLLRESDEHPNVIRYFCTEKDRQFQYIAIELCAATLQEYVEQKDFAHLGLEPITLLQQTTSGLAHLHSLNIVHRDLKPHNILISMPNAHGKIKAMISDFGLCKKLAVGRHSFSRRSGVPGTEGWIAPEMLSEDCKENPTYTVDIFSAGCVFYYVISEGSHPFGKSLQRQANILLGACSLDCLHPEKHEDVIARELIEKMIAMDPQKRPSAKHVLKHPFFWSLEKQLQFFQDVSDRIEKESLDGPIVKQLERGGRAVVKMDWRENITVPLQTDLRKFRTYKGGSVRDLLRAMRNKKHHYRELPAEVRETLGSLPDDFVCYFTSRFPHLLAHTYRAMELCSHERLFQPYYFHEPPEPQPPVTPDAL
# [2] = target: T1, Serine/threonine-protein kinase/endoribonuclease IRE1; assay: Displacement for LanthaScreen tracer from dephosphorylated IRE1alpha (G547 to L977 residues) (unknown origin) ATP binding site […] after 60 mins by FRET assay
# Target sequence in this assay (O75460 whole entry, the tested form may be a part): as above
# [3] = target: T1, Serine/threonine-protein kinase/endoribonuclease IRE1; assay: Inhibition of dephosphorylated IRE1alpha (G547 to L977 residues) (unknown origin) -dependent cleavage of FAM-labeled stem-loop RNA containing the XBP1 cleavage site preincubated for 30 mins followed by RNA XBP1 substrate addition and measured after 15 mins by FRET assay
# Target sequence in this assay (O75460 whole entry, the tested form may be a part): as above
# [4] = target: T1, Serine/threonine-protein kinase/endoribonuclease IRE1; assay: Inhibition of tunicamycin-induced IRE1alpha (unknown origin) expressed in HEK293 cells assessed as reduction in IRE1alpha-dependent splicing of XBP1u-luciferase mRNA by luciferase reporter gene assay; format: cell-based
# Target sequence in this assay (O75460 whole entry, the tested form may be a part): as above
# [5] = target: Cyclin-dependent kinase 17 (Homo sapiens) (UniProt Q00537); assay: Inhibition of recombinant human GST-tagged PCTK2 expressed in baculovirus expression system at 1 uM by kinomescan assay relative to control
# [6] = target: T1, Serine/threonine-protein kinase/endoribonuclease IRE1; assay: Inhibition of tunicamycin-induced GFP-fused IRE1alpha (unknown origin) oligomerization expressed in HEK293 cells assessed as reduction in fluorescent foci formation after 5 hrs by fluorescence based assay; format: cell-based
# Target sequence in this assay (O75460 whole entry, the tested form may be a part): as above
# [7] = target: T1, Serine/threonine-protein kinase/endoribonuclease IRE1; assay: Inhibition of thapsigargin-induced IRE1alpha (unknown origin) expressed in HEK293 cells assessed as reduction in IRE1alpha-dependent splicing of XBP1u-luciferase mRNA by luciferase reporter gene assay; format: cell-based
# Target sequence in this assay (O75460 whole entry, the tested form may be a part): as above
# [8] = test system: HEK293; assay: cells; conditions: Homo sapiens
# Description: Cytotoxicity against HEK293 cells co-expressing XBP1u-mRNA by luciferase reporter gene assay
# [9] = Distribution coefficient, log D of the compound at pH 7.4; format: physicochemical; conditions: octanol/water
# [10] = physchem; conditions: buffer
# Description: Aqueous kinetic solubility of the compound
# [11] = target: Dual specificity protein kinase CLK2 (Homo sapiens) (UniProt P49760); assay: Inhibition of recombinant human GST-tagged CLK2 expressed in baculovirus expression system at 1 uM by kinomescan assay relative to control
# [12] = target: Dual specificity protein kinase CLK1 (Homo sapiens) (UniProt P49759); assay: Inhibition of recombinant human GST-tagged CLK1 expressed in Escherichia coli at 1 uM by kinomescan assay relative to control
# Sequence of Dual specificity protein kinase CLK1 (Homo sapiens) (P49759 whole entry, looked up): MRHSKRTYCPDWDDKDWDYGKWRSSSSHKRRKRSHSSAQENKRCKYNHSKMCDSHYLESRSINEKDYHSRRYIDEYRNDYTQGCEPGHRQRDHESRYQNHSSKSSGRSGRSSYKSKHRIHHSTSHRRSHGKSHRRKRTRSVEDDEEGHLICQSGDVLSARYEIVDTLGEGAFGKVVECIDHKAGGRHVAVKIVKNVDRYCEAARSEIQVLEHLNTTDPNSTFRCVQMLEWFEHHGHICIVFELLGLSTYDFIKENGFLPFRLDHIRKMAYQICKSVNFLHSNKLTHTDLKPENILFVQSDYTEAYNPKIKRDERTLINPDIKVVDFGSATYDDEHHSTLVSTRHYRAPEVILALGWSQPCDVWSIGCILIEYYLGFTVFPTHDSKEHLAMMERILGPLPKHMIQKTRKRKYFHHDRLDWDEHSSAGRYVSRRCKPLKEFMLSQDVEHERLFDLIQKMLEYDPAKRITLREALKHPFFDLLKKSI
# [13] = target: Dual specificity protein kinase CLK4 (Homo sapiens) (UniProt Q9HAZ1); assay: Inhibition of recombinant full length human GST-tagged CLK4 expressed in baculovirus expression system at 1 uM by kinomescan assay relative to control
# Sequence of Dual specificity protein kinase CLK4 (Homo sapiens) (Q9HAZ1 whole entry, looked up): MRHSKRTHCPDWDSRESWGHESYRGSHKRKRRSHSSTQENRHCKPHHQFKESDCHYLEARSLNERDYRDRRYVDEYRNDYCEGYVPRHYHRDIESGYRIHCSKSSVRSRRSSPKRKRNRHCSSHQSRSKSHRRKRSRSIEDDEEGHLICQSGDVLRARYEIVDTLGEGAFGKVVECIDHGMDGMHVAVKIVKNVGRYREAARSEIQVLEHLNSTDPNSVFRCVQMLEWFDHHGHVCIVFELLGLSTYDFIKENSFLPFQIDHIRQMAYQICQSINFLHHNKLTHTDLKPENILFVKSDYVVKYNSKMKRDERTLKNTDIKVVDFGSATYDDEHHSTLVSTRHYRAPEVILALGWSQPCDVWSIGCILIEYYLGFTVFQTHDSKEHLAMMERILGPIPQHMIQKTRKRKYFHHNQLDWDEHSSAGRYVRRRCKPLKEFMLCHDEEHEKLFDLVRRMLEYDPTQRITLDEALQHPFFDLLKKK
# [14] = target: Dual specificity tyrosine-phosphorylation-regulated kinase 1A (Homo sapiens) (UniProt Q13627); assay: Inhibition of recombinant full length human GST-tagged DYRK1A expressed in baculovirus expression system at 1 uM by kinomescan assay relative to control
# [15] = target: Dual specificity tyrosine-phosphorylation-regulated kinase 1B (Homo sapiens) (UniProt Q9Y463); assay: Inhibition of recombinant full length human GST-tagged DYRK1B expressed in baculovirus expression system at 1 uM by kinomescan assay relative to control
# [16] = target: Homeodomain-interacting protein kinase 4 (Homo sapiens) (UniProt Q8NE63); assay: Inhibition of recombinant human His-tagged HIPK4 expressed in baculovirus expression system at 1 uM by kinomescan assay relative to control
# Sequence of Homeodomain-interacting protein kinase 4 (Homo sapiens) (Q8NE63 whole entry): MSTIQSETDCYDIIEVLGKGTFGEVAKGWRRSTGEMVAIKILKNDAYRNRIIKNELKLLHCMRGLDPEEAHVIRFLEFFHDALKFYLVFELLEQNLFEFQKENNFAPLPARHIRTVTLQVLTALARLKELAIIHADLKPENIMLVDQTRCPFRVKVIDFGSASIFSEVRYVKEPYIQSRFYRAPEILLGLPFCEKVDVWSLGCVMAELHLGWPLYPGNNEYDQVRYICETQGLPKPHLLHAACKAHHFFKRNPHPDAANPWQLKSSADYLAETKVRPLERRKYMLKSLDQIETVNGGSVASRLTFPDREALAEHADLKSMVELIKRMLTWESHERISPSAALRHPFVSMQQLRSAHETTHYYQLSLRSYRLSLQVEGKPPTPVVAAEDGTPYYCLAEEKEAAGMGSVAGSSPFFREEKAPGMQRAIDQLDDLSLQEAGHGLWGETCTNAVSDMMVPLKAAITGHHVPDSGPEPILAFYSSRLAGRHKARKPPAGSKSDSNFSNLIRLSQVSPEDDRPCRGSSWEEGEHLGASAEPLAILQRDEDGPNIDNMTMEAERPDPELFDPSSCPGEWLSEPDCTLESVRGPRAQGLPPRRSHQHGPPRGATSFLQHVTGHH
# [17] = target: Receptor-type tyrosine-protein kinase FLT3 (Homo sapiens) (UniProt P36888); assay: Inhibition of recombinant human His-tagged FLT3 expressed in baculovirus expression system at 1 uM by kinomescan assay relative to control
# [18] = test system: Receptor-type tyrosine-protein kinase FLT3 (Homo sapiens), P36888 [UNDEFINED MUTATION]; assay: Inhibition of recombinant human His-tagged FLT3 ITD mutant expressed in baculovirus expression system at 1 uM by kinomescan assay relative to control
# [19] = test system: Receptor-type tyrosine-protein kinase FLT3 (Homo sapiens), P36888 [N841I]; assay: Inhibition of recombinant human His-tagged FLT3 […] mutant expressed in baculovirus expression system at 1 uM by kinomescan assay relative to control
# [20] = target: Mast/stem cell growth factor receptor Kit (Homo sapiens) (UniProt P10721); assay: Inhibition of recombinant human His-tagged KIT expressed in baculovirus expression system at 1 uM by kinomescan assay relative to control
# [21] = test system: Mast/stem cell growth factor receptor Kit (Homo sapiens), P10721 [L576P]; assay: Inhibition of recombinant human His-tagged KIT L576P mutant expressed in baculovirus expression system at 1 uM by kinomescan assay relative to control
# Sequence of Mast/stem cell growth factor receptor Kit (Homo sapiens), P10721 [L576P] (P10721 whole entry L576P): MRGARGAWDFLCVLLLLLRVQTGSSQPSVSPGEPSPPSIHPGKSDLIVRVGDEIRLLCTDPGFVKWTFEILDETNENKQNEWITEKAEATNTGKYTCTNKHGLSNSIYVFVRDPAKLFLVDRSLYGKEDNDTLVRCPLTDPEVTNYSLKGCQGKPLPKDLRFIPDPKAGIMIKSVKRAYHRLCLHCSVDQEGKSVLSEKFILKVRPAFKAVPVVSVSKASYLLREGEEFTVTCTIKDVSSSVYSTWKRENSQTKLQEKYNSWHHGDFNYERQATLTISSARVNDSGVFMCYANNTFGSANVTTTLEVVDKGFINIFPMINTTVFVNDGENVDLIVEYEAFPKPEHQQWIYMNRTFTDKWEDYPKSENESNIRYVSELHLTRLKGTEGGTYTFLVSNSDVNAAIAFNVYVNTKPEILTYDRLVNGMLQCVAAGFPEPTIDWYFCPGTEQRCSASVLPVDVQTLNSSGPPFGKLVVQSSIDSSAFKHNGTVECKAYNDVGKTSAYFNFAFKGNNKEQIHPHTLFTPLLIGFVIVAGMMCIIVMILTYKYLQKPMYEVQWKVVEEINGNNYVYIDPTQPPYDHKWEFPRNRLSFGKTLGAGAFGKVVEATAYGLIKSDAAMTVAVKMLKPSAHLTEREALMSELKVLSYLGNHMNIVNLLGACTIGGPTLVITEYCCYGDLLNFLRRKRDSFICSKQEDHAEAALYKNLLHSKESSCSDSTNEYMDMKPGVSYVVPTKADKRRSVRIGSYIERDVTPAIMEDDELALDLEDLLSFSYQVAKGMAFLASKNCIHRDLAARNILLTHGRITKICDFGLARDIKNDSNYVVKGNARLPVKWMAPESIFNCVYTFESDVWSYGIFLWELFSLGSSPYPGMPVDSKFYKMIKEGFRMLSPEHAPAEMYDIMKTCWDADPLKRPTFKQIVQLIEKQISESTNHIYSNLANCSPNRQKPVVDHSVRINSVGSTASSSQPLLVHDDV
# [22] = test system: Mast/stem cell growth factor receptor Kit (Homo sapiens), P10721 [V559D]; assay: Inhibition of recombinant human His-tagged KIT V559D mutant expressed in baculovirus expression system at 1 uM by kinomescan assay relative to control
# Sequence of Mast/stem cell growth factor receptor Kit (Homo sapiens), P10721 [V559D] (P10721 whole entry V559D): as the sequence (P10721 whole entry L576P) above, with V559D, P576L counted along it
# [23] = target: Platelet-derived growth factor receptor beta (Homo sapiens) (UniProt P09619); assay: Inhibition of recombinant human His-tagged PDGFRB expressed in baculovirus expression system at 1 uM by kinomescan assay relative to control
# [24] = test system: Receptor-type tyrosine-protein kinase FLT3 (Homo sapiens), P36888 [D835Y]; assay: Inhibition of recombinant human His-tagged FLT3 D835Y mutant expressed in baculovirus expression system at 1 uM by kinomescan assay relative to control
# [25] = test system: Receptor-type tyrosine-protein kinase FLT3 (Homo sapiens), P36888 [K663Q]; assay: Inhibition of recombinant human His-tagged FLT3 K663Q mutant expressed in baculovirus expression system at 1 uM by kinomescan assay relative to control
# [26] = target: Dual specificity tyrosine-phosphorylation-regulated kinase 2 (Homo sapiens) (UniProt Q92630); assay: Inhibition of recombinant human GST-tagged DYRK2 at 1 uM by kinomescan assay relative to control
# [27] = target: Cyclin-G-associated kinase (Homo sapiens) (UniProt O14976); assay: Inhibition of recombinant human GST-tagged GAK (1 to 396 residues) expressed in insect cell expression system at 1 uM by kinomescan assay relative to control
# [28] = target: Homeodomain-interacting protein kinase 1 (Homo sapiens) (UniProt Q86Z02); assay: Inhibition of recombinant human GST-tagged HIPK1 expressed in baculovirus expression system at 1 uM by kinomescan assay relative to control
# [29] = target: Homeodomain-interacting protein kinase 2 (Homo sapiens) (UniProt Q9H2X6); assay: Inhibition of recombinant human N-terminal GST-tagged HIPK2 expressed in baculovirus expression system at 1 uM by kinomescan assay relative to control
# [30] = target: Homeodomain-interacting protein kinase 3 (Homo sapiens) (UniProt Q9H422); assay: Inhibition of recombinant human His-tagged HIPK3 expressed in baculovirus expression system at 1 uM by kinomescan assay relative to control
# [31] = test system: Receptor-type tyrosine-protein kinase FLT3 (Homo sapiens), P36888 [R834Q]; assay: Inhibition of recombinant human His-tagged FLT3 R834Q mutant expressed in baculovirus expression system at 1 uM by kinomescan assay relative to control
# [32] = target: Myosin light chain kinase, smooth muscle (Homo sapiens) (UniProt Q15746); assay: Inhibition of recombinant human GST-tagged MLCK expressed in baculovirus expression system at 1 uM by kinomescan assay relative to control
# [33] = target: Platelet-derived growth factor receptor alpha (Homo sapiens) (UniProt P16234); assay: Inhibition of recombinant human GST-tagged PDGFRA expressed in baculovirus expression system at 1 uM by kinomescan assay relative to control
# [34] = test system: Receptor-type tyrosine-protein kinase FLT3 (Homo sapiens), P36888 [D835H]; assay: Inhibition of recombinant human His-tagged FLT3 D835H mutant expressed in baculovirus expression system at 1 uM by kinomescan assay relative to control
# [35] = test system: Receptor-type tyrosine-protein kinase FLT3 (Homo sapiens), P36888 [D835V]; assay: Inhibition of recombinant human His-tagged FLT3 D835V mutant expressed in baculovirus expression system at 1 uM by kinomescan assay relative to control
# [36] = organism: Homo sapiens; assay: Inhibition of recombinant human His-tagged FLT3 ITD/D835V double mutant expressed in baculovirus expression system at 1 uM by kinomescan assay relative to control
# [37] = test system: Mast/stem cell growth factor receptor Kit (Homo sapiens), P10721 [V559D,T670I]; assay: Inhibition of recombinant human His-tagged KIT V559D/T670I double mutant expressed in baculovirus expression system at 1 uM by kinomescan assay relative to control
# [38] = test system: Mast/stem cell growth factor receptor Kit (Homo sapiens), P10721 [V559D,V654A]; assay: Inhibition of recombinant human His-tagged KIT V559D/V654A double mutant expressed in baculovirus expression system at 1 uM by kinomescan assay relative to control
# [39] = test system: Tyrosine-protein kinase ABL1 (Homo sapiens), P00519 [F317I]; assay: Inhibition of phosphorylated recombinant human His-tagged ABL1 F317I mutant expressed in baculovirus expression system at 1 uM by kinomescan assay relative to control
# [40] = test system: Tyrosine-protein kinase ABL1 (Homo sapiens), P00519 [F317L]; assay: Inhibition of phosphorylated recombinant human His-tagged ABL1 F317L mutant expressed in baculovirus expression system at 1 uM by kinomescan assay relative to control
# [41] = target: Receptor-type tyrosine-protein kinase FLT3 (Homo sapiens) (UniProt P36888); assay: Inhibition of auto-inhibited recombinant human His-tagged FLT3 expressed in baculovirus expression system at 1 uM by kinomescan assay relative to control
# [42] = target: T1, Serine/threonine-protein kinase/endoribonuclease IRE1; assay: Inhibition of tunicamycin-induced IRE1alpha-dependent splicing of XBP1s-mRNA transcription in human H929 cells assessed as reduction in […] mRNA expression in at 0.5 to 10 uM by RT-qPCR analysis; format: cell-based
structure (smiles),measurement,setting,value
Clc1cc(NCC2CC2)c2ncc(-c3ccc4cn[nH]c4c3)n2n1,IC50,[1],> 10000 nM
same,IC50,[2],> 10000 nM
Cn1ncc2cc(-c3cnc4c(NCC5CC5)cc(Cl)nn34)ccc21,IC50,[1],> 10000 nM
same,IC50,[2],> 10000 nM
CN1CCC(CNc2cc(Cl)nn3c(-c4cc5nc(Nc6ccccc6)[nH]c5cc4F)cnc23)CC1,IC50,[1],160 nM
same,IC50,[2],270 nM
same,IC50,[3],80 nM
same,IC50,[4],710 nM
same,inhibition,[5],> 90%
same,IC50,[6],740 nM
same,IC50,[7],680 to 1630 nM
same,EC50,[8],9000 nM
CN(c1ccccc1)c1nc2cc(-c3cnc4c(NCC5CC5)cc(Cl)nn34)ccc2[nH]1,IC50,[1],> 10000 nM
same,IC50,[2],> 10000 nM
Clc1cc(NCC2CC2)c2ncc(-c3ccc4[nH]c(Nc5ccccc5)nc4c3)n2n1,logD,[9],4.1
same,solubility kinetic,[10],2.9 µM
Clc1cc(NCC2CC2)c2ncc(-c3ccc4[nH]ncc4c3)n2n1,inhibition,[11],> 90%
same,inhibition,[12],> 90%
same,IC50,[1],303 nM
same,IC50,[2],1600 nM
same,IC50,[3],8900 nM
same,IC50,[4],4200 nM
same,logD,[9],3.4
same,inhibition,[13],> 90%
same,inhibition,[14],> 90%
same,inhibition,[15],> 90%
same,inhibition,[16],> 90%
same,inhibition,[17],> 90%
same,inhibition,[18],> 90%
same,inhibition,[19],> 90%
same,inhibition,[20],> 90%
same,inhibition,[21],> 90%
same,inhibition,[22],> 90%
same,inhibition,[23],> 90%
same,inhibition,[24],> 90%
same,inhibition,[25],> 90%
same,inhibition,[5],> 90%
same,EC50,[8],> 49000 nM
same,solubility kinetic,[10],0.8 µM
CN(c1cc(Cl)nn2c(-c3ccc4[nH]ncc4c3)cnc12)[C@H]1CC[C@H](N)CC1,IC50,[1],> 10000 nM
same,IC50,[2],> 10000 nM
Clc1cc(NC2CCOCC2)c2ncc(-c3ccc4[nH]ncc4c3)n2n1,solubility kinetic,[10],2.2 µM
CN1CCC(Nc2cc(Cl)nn3c(-c4ccc5[nH]ncc5c4)cnc23)CC1,logD,[9],1.8
same,solubility kinetic,[10],58 µM
Clc1cc(NC2CCOCC2)c2ncc(-c3ccc4[nH]c(Nc5ccccc5)nc4c3)n2n1,solubility kinetic,[10],2.4 µM
CN1CCC(Nc2cc(Cl)nn3c(-c4ccc5[nH]c(Nc6ccccc6)nc5c4)cnc23)CC1,logD,[9],2.7
same,solubility kinetic,[10],41 µM
Cn1c(Nc2ccccc2)nc2cc(-c3cnc4c(NCC5CC5)cc(Cl)nn34)ccc21,IC50,[1],> 10000 nM
same,IC50,[2],> 10000 nM
O=C(CN1CCOCC1)N[C@H]1CC[C@H](Nc2cc(Cl)nn3c(-c4ccc5[nH]ncc5c4)cnc23)CC1,inhibition,[11],> 90%
same,inhibition,[12],> 90%
same,inhibition,[26],> 90%
same,inhibition,[27],> 90%
same,IC50,[1],240 nM
same,IC50,[2],87 nM
same,IC50,[3],27 nM
same,IC50,[4],1120 nM
same,inhibition,[13],> 90%
same,inhibition,[14],> 90%
same,inhibition,[15],> 90%
same,inhibition,[28],> 90%
same,inhibition,[29],> 90%
same,inhibition,[30],> 90%
same,inhibition,[31],> 90%
same,inhibition,[16],> 90%
same,inhibition,[32],> 90%
same,inhibition,[33],> 90%
same,inhibition,[17],> 90%
same,inhibition,[18],> 90%
same,inhibition,[34],> 90%
same,inhibition,[35],> 90%
same,inhibition,[36],> 90%
same,inhibition,[19],> 90%
same,inhibition,[20],> 90%
same,inhibition,[21],> 90%
same,inhibition,[22],> 90%
same,inhibition,[37],> 90%
same,inhibition,[38],> 90%
same,inhibition,[39],> 90%
same,inhibition,[40],> 90%
same,IC50,[6],1880 nM
same,inhibition,[41],> 90%
same,IC50,[7],680 to 1630 nM
same,inhibition,[42],Active
same,EC50,[8],> 49000 nM
